In PubChem BioAssay (NCI) one finds GI50 and TGI data, which are given here for eleven compounds.

Usually GI50 stands for the concentration at which growth is held to half of that of the control. In general, TGI refers to the concentration at which net growth stops.

Common to all, as to assay: DTP human tumour cell line panel, 48 h
Experiment [1] relates to HCC-2998 colon.
Experiment [2] relates to SN12C renal.
Experiment [3] has as its system SR leukemia.
Experiment [4] has as its system UACC-62 melanoma.
In experiment [5] the test system is UACC-257 melanoma.
Experiment [6] concerns OVCAR-8 ovarian.
The test system of experiment [7] is SF-268 CNS.
The subject of experiment [8] is K-562 leukemia.
For experiment [9], the system named is SW-620 colon.
Experiment [10] relates to UO-31 renal.

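In this assay, cells in 96-well plates receive the compound at five concentrations for 48 hours. Endpoints are linearly interpolated between the surrounding concentrations. GI50: concentration for 50% inhibition of growth. TGI marks complete inhibition of growth.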

Consider `Cc1cc(I)cc(CNCCCN2CCSCC2)c1O`, for which the GI50 in [1] is 12.7 µM; in experiment [2] it was 41.4 µM; in [3], 10.4 µM; in [4] it was 12.7 µM; in experiment [5], 16.6 µM; in experiment [6], 17.4 µM. In addition, the GI50 in experiment [7] was 17.2 µM; in experiment [8] it was 8.4 µM; in experiment [9], 16.5 µM; in [10] it was 14.3 µM. Besides, the TGI in [1] is 26.9 µM; in experiment [2], over 100 µM; in [3], 28.5 µM; in [4] it was 30.9 µM; in [5], 34.1 µM; in experiment [6] it was 34 µM. The TGI came out at 36.4 µM in experiment [7], 26.1 µM in experiment [8], 30.3 µM in [9] and 41.8 µM in experiment [10].

Consider `Cc1ccc2c(c1)C(=O)/C(=C/c1ncc([N+](=O)[O-])n1C)O2`, for which the GI50 in [1] is 2.29 µM; in [2], 1.77 µM; in experiment [3], 0.0379 µM; in experiment [4] it was 1.38 µM; in [5] it was 1.98 µM; in experiment [6], 0.481 µM. Further, the GI50 in experiment [7] was 1.93 µM; in experiment [8] it was 0.598 µM; in experiment [9], 0.271 µM; in experiment [10], 1.17 µM. The total growth inhibition concentration (TGI) in experiment [1] came out at 5.4 µM; in experiment [2] it was 6.55 µM; in [3] it was 0.431 µM; in [4] it was 3.84 µM; in experiment [5], 5.65 µM; in experiment [6] it was 7 µM. For the same compound, the concentration for total growth inhibition (TGI) in experiment [7] was 5.53 µM; in experiment [8] it was over 24.9 µM; in [9] it was 2.3 µM; in [10], 5.04 µM.

As to `O=NN(Cc1ccc(Cl)cc1)C(C(=O)O)c1ccccc1` (stereo not given), the TGI in [1], in experiment [2], in [3], in experiment [4], in experiment [5] and in experiment [6] was over 100 µM in each case. The TGI in experiment [7], in [8], in experiment [9] and in [10] was over 100 µM each time.

Take `Cc1cc(N(CCOS(C)(=O)=O)CCOS(C)(=O)=O)ccc1C=Nc1ccc(-c2nc(Cc3ccccc3)sc2C)cc1`: the TGI in experiment [1] was 15.7 µM; in experiment [2], 26.3 µM; in [3], 18.5 µM; in experiment [4] it was 16.7 µM; in experiment [5] it was 28.4 µM; in [6] it was 41.8 µM. In addition, the TGI in experiment [7] turned out to be 20.4 µM; in [8], 65.5 µM; in [9] it was 45.4 µM; in [10] it was 18.3 µM.

With `N#CC1(Cc2ccc(N)cc2)c2ccccc2C=CN1C(=O)c1ccccc1` (stereo not given), the TGI was over 100 µM in experiment [1]; over 100 µM in [2]; 94.3 µM in experiment [3]; over 100 µM in experiment [4]; over 100 µM in experiment [5]; over 100 µM in experiment [6]. Also, the TGI was over 100 µM in experiment [7], over 100 µM in experiment [8], over 100 µM in experiment [9] and 84.2 µM in [10].

Turning to `CCNCCNc1cc(-c2ccc(C(=O)OC)cc2)c(C#N)c2nc3ccccc3n12`, the GI50 was 2.3 µM in experiment [1]; 2.68 µM in [2]; 0.24 µM in experiment [3]; 2.26 µM in [4]; 1.87 µM in experiment [5]; 2.13 µM in experiment [6]. Moreover, the GI50 in [7] was 2.54 µM; in experiment [8], 1.23 µM; in [9] it was 0.488 µM; in experiment [10] it was 1.53 µM. Further, the TGI in experiment [1] is over 100 µM; in [2] it was 8.33 µM; in [3], 0.613 µM; in [4] it was 4.74 µM; in [5], 3.71 µM; in [6] it was 5.32 µM. The TGI in experiment [7] came out at 16.2 µM; in [8] it was 3.2 µM; in experiment [9], 2.67 µM; in experiment [10], 2.95 µM.

With `CC1=C(C(=O)Nc2ccc3[nH]ncc3c2)C(c2ccc3ccccc3c2)CC(=O)N1` (stereo not given), the GI50 in experiment [1] was over 25 µM; in experiment [2], over 25 µM; in experiment [3], over 25 µM; in [4], 14.5 µM; in [5], over 25 µM; in experiment [6], over 25 µM. Also, the GI50 in experiment [7] was 11.5 µM; in experiment [8], over 25 µM; in experiment [9], 9.97 µM; in experiment [10], 2.4 µM. For the same compound, the total growth inhibition concentration (TGI) in [1], in [2], in [3], in [4], in [5] and in [6] was over 25 µM throughout. The concentration for total growth inhibition (TGI) in [7], in experiment [8], in experiment [9] and in [10] was over 25 µM in each case.

Regarding `Cc1ccc(S(=O)(=O)C(CC(=O)N2CCCC2)C(=O)c2ccccc2)cc1` (stereo not given), the TGI in experiment [1], in experiment [2], in [3], in experiment [4], in experiment [5] and in [6] was over 100 µM in each case. Besides, the TGI in experiment [7], in experiment [8], in experiment [9] and in [10] was over 100 µM in each case.

Consider `COc1cc(OC)cc(-c2ccc(-c3ccc(C(=N)N)o3)o2)c1`, for which the GI50 in [1] was 2.05 µM; in experiment [2] it was 2.38 µM; in [3], 1.68 µM; in [4], 1.96 µM; in experiment [5], 2.41 µM; in [6] it was 3.75 µM. The GI50 in experiment [7] is 3.4 µM; in experiment [8], 1.98 µM; in experiment [9], 1.88 µM; in experiment [10], 2.67 µM. Further, the TGI in [1] was determined as 3.94 µM; in [2] it was 5.15 µM; in experiment [3] it was 4.36 µM; in experiment [4], 3.98 µM; in [5] it was 5.41 µM; in experiment [6] it was 14 µM. Besides, the TGI in [7] amounted to 13.2 µM; in experiment [8] it was 4.47 µM; in experiment [9] it was 4.06 µM; in experiment [10] it was 9.16 µM.

`O=C1C=CC(=Nc2ccc3c(c2)C(Br)c2ccccc2-3)O1` (stereo not given): the TGI in [1] is over 100 µM; in experiment [2], 49.9 µM; in [3], over 100 µM; in experiment [4] it was over 100 µM; in [5], over 100 µM; in [6], over 100 µM. In addition, the TGI in experiment [7], in experiment [8], in experiment [9] and in experiment [10] was over 100 µM each time.

In the case of `C[C@]12CC[C@H](O)CC1=CC[C@@H]1[C@@H]2CC[C@]2(C)C(c3cccnc3)=CC[C@@H]12`, the GI50 in experiment [1] was over 100 µM; in experiment [2] it was over 100 µM; in [3], 9.44 µM; in [4], 37.4 µM; in [5] it was over 100 µM; in experiment [6] it was 29.5 µM. The GI50 in [7] is 15.7 µM; in experiment [8], 3.99 µM; in experiment [9] it was over 100 µM; in [10], over 100 µM. Besides, the total growth inhibition concentration (TGI) in experiment [1], in experiment [2], in [3], in experiment [4], in [5] and in experiment [6] was over 100 µM each time. For the same compound, the TGI in experiment [7], in experiment [8], in experiment [9] and in experiment [10] was over 100 µM each time.
